Counter-ions that a name gives are not always drawn.
System: post-operative pain model in rats
Experiment: Mechanical allodynia (von Frey filaments) in the post-operative pain model (plantar incision)
Type: in vivo
Description: The induction of anesthesia in rats was performed with 3% isofluran for veterinary use, employing an Ohmeda vaporizer and an anesthesia chamber. Anesthesia was kept during the surgical operation by a tube which directs the isofluran vapors to the animal's snout. Once the rats were anesthetized, they were laid down in a prone position and their right hind paws were cleaned out with alcohol.
Then, a skin incision in the hindpaw of about 10 mm was made by means of a scalpel, starting about 5 mm from the heel and extending toward the toes. Fascia was located and by means of curve scissors muscle was elevated and a longitudinal incision of about 5 mm was made, thus the muscle origin and insertion remained intact. The skin of the paw was stitched with a suturing stitch with breaded silk (3.0) and the wound was cleaned out with povidone.
The assessment was performed 30 minutes after the administration of product and always 4 hours after the plantar incision. The analysis was carried out evaluating the mechanical allodynia. It was tested using von Frey filaments: Animals were placed in methacrylate cylinders on an elevated surface, with metallic mesh floor perforated in order to apply the filaments. After an acclimation period of about 30 minutes within the cylinders, both hindpaws were stimulated (the injured and the non-injured paw, serving the latter as control), starting with the lowest force filament (0.4 g) and reaching a 15 g filament. The animal's response to pain was manifested by the withdrawal of the paw as a consequence of the painful stimulus caused by a filament.
(§1) The efficacy of the combined use of Pregabalin and compound 63.HCl was tested at different doses of compound 63.HCl (5, 10, 20, 40 and 80 mg/kg), while the Pregabalin dose remained constant (0.04 mg/kg). The administrations were performed 3.5 hours after surgery. The treated subjects were tested according to the mechanical allodynia protocol above (FIG. 1).
as §1, with “Gabapentin” for “Pregabalin”, “(10,” for “(5, 10,”, “(10” for “(0.04”, “2).” for “1).”

## NCC1(CC(=O)O)CCCCC1 [Gabapentin]
Gabapentin alone at 10 mg/kg, non-significant, FIG. 2
  effect (analgesia, mechanical allodynia): 0±2%

## CC(C)C[C@H](CN)CC(=O)O [Pregabalin]
Pregabalin alone, sub-active dose 0.04 mg/kg, FIG. 1
  effect (analgesia, mechanical allodynia): non-significant effect

## Cc1cc(OCCN2CCOCC2)nn1-c1ccc2ccccc2c1 [compound 63.HCl, 4-{2-[5-Methyl-1-(naphthalen-2-yl)-1H-pyrazol-3-yloxy]ethyl}morpholine hydrochloride]
Rattus norvegicus, compound alone, 10, 20, 40 and 80 mg/kg, FIG. 2
  ED50: 40 mg/kg
Rattus norvegicus, compound alone, dose dependent (5, 10, 20, 40 and 80 mg/kg), FIG. 1, 30 min after administration, 4 h after plantar incision, read-out: maximum effect
  Emax: 43%

From patent publication US20160310501A1, “GABA[…] SIGMA RECEPTOR LIGANDS COMBINATIONS” (LABORATORIOS DEL DR. ESTEVE, S.A., priority 2013, published 2016)
